In ChEMBL document CHEMBL3763028, “Anionic fluoroquinolones as antibacterials against biofilm-producing Pseudomonas aeruginosa” (2016):
In brackets after ≈: the same amount, converted by molar mass.

How the values were obtained:
Type in all cases: functional
Pseudomonas aeruginosa [1] = assay: Antipseudomonal activity against Pseudomonas aeruginosa PAO1 in Pseudomonas isolation agar assessed as bacterial growth inhibition at 10 uM by disk diffusion assay; settings: read-out: DIZ
Pseudomonas aeruginosa [2] = assay: Antipseudomonal activity against Pseudomonas aeruginosa PAO1 in Luria-Bertani agar assessed as bacterial growth inhibition at 10 uM by disk diffusion assay; settings: read-out: DIZ
Pseudomonas aeruginosa [3] = assay: Antipseudomonal activity against Pseudomonas aeruginosa PAO581 in Luria-Bertani agar assessed as bacterial growth inhibition at 10 uM by disk diffusion assay; settings: read-out: DIZ
Pseudomonas aeruginosa [4] = assay: Antipseudomonal activity against Pseudomonas aeruginosa PAO581 in Pseudomonas isolation agar assessed as bacterial growth inhibition at 10 uM by disk diffusion assay; settings: read-out: DIZ
Pseudomonas aeruginosa [5] = assay: Bactericidal activity against Pseudomonas aeruginosa PAO1 in Luria-Bertani broth by microdilution method
Pseudomonas aeruginosa [6] = assay: Antipseudomonal activity against Pseudomonas aeruginosa PAO1 in Pseudomonas isolation agar assessed as reduction in inhibitory zone size at 10 uM by disk diffusion assay relative to Luria-Bertani agar; parameters: scale not given: the % may be the effect or the level left
Pseudomonas aeruginosa [7] = assay: Antipseudomonal activity against Pseudomonas aeruginosa PAO581 in Pseudomonas isolation agar assessed as reduction in inhibitory zone size at 10 uM by disk diffusion assay relative to Luria-Bertani agar; parameters: scale not given: the % may be the effect or the level left
Pseudomonas aeruginosa [8] = assay: Antipseudomonal activity against Pseudomonas aeruginosa PAO581 in Luria-Bertani broth by microdilution method
Pseudomonas aeruginosa [9] = assay: Antipseudomonal activity against Pseudomonas aeruginosa PAO1 in Luria-Bertani broth by microdilution method
Pseudomonas aeruginosa [10] = assay: Bactericidal activity against Pseudomonas aeruginosa PAO581 in Luria-Bertani broth by microdilution method

MIC (Pseudomonas aeruginosa [8]) | MIC (Pseudomonas aeruginosa [9]) | Compound | zone of inhibition at 10 µM (Pseudomonas aeruginosa [1]) | zone of inhibition at 10 µM (Pseudomonas aeruginosa [2]) | zone of inhibition at 10 µM (Pseudomonas aeruginosa [3]) | zone of inhibition at 10 µM (Pseudomonas aeruginosa [4]) | MBC (Pseudomonas aeruginosa [5]) | Activity (Pseudomonas aeruginosa [6]) | Activity (Pseudomonas aeruginosa [7]) | MBC (Pseudomonas aeruginosa [10])
– | – | CCCCN1CCN(c2cc3c(cc2F)c(=O)c(C(=O)O)cn3C2CC2)CC1 | 0 mm | 23 mm | 13 mm | 0 mm | – | – | – | –
– | – | COc1c(N2CCN(C(C)=O)C(C)C2)c(F)cc2c(=O)c(C(=O)O)cn(C3CC3)c12 (stereo unspecified) | 0 mm | 0 mm | 0 mm | 0 mm | – | – | – | –
3.12 µM | 3.12 µM | O=C([O-])c1ccccc1C(=O)N1CCN(c2cc3c(cc2F)c(=O)c(C(=O)[O-])cn3C2CC2)CC1.[K+].[K+] | 11 mm | 23 mm | 31 mm | 13 mm | 6.25 µM | 53% | 58% | 12.5 µM
– | – | O=C(O)CCC(=O)N1CCN(c2cc3c(cc2F)c(=O)c(C(=O)O)cn3C2CC2)CC1 | 0 mm | 0 mm | 0 mm | 0 mm | – | – | – | –
3.12 µM (≈ 1.12 µg/mL) | 3.12 µM (≈ 1.12 µg/mL) | O=CN1CCN(c2cc3c(cc2F)c(=O)c(C(=O)O)cn3C2CC2)CC1 | 20 mm | 18 mm | 21 mm | 9 mm | 6.25 µM (≈ 2.25 µg/mL) | – | – | 6.25 µM (≈ 2.25 µg/mL)
– | – | COc1c(N2C[C@@H]3CCCN(C(C)=O)[C@@H]3C2)c(F)cc2c(=O)c(C(=O)O)cn(C3CC3)c12 | 0 mm | 0 mm | 0 mm | 0 mm | – | – | – | –
– | – | O=C(O)CN1CCN(c2cc3c(cc2F)c(=O)c(C(=O)O)cn3C2CC2)CC1 | 0 mm | 0 mm | 0 mm | 0 mm | – | – | – | –
– | – | CCn1cc(C(=O)O)c(=O)c2cc(F)c(N3CCNC(C)C3)c(F)c21 (stereo unspecified) | 12 mm | 23 mm | 29 mm | 15 mm | – | – | – | –
– | – | CCCCCCN1CCN(c2cc3c(cc2F)c(=O)c(C(=O)O)cn3C2CC2)CC1 | 0 mm | 0 mm | 0 mm | 0 mm | – | – | – | –
– | – | CC(=O)NC1(c2c(F)cc3c(=O)c(C(=O)O)cn4c3c2OC[C@@H]4C)CC1 | 0 mm | 0 mm | 0 mm | 0 mm | – | – | – | –
– | – | CCn1cc(C(=O)O)c(=O)c2cc(F)c(N3CCN(C(C)=O)C(C)C3)c(F)c21 (stereo unspecified) | 0 mm | 0 mm | 0 mm | 0 mm | – | – | – | –
– | – | O=C(O)CCCC(=O)N1CCN(c2cc3c(cc2F)c(=O)c(C(=O)O)cn3C2CC2)CC1 | 0 mm | 0 mm | 0 mm | 0 mm | – | – | – | –
– | – | O=C(O)c1cn(C2CC2)c2cc(N3CCN(Cc4ccccc4)CC3)c(F)cc2c1=O | 0 mm | 0 mm | 13 mm | 0 mm | – | – | – | –
– | – | COC(=O)CN1CCN(c2cc3c(cc2F)c(=O)c(C(=O)O)cn3C2CC2)CC1 | 0 mm | 0 mm | 0 mm | 0 mm | – | – | – | –
– | – | O=C(O)CCCN1CCN(c2cc3c(cc2F)c(=O)c(C(=O)O)cn3C2CC2)CC1 | 0 mm | 0 mm | 0 mm | 0 mm | – | – | – | –
– | – | CCn1cc(C(=O)O)c(=O)c2cc(F)c(N3CCN(C)CC3)cc21 | 12 mm | 18 mm | 19 mm | 14 mm | – | – | – | –
– | – | CC1(C)S[C@@H]2[C@H](NC(=O)[C@H](C(=O)O)c3ccsc3)C(=O)N2[C@H]1C(=O)O | 0 mm | 0 mm | 0 mm | 0 mm | – | – | – | –
– | – | COC(=O)CCCN1CCN(c2cc3c(cc2F)c(=O)c(C(=O)O)cn3C2CC2)CC1 | 6 mm | 16 mm | 17 mm | 9 mm | – | – | – | –
– | – | C[C@H]1COc2c(C3(N)CC3)c(F)cc3c(=O)c(C(=O)O)cn1c23 | 17 mm | 25 mm | 30 mm | 20 mm | – | – | – | –
– | – | CC(=O)N1CCN(c2cc3c(cc2F)c(=O)c(C(=O)O)cn3C2CC2)CC1 | 0 mm | 10 mm | 0 mm | 13 mm | – | – | – | –
0.78 µM (≈ 0.365 µg/mL) | 3.12 µM (≈ 1.46 µg/mL) | NC[C@H]1O[C@H](O[C@H]2[C@H](O)[C@@H](O[C@H]3O[C@H](CO)[C@@H](O)[C@H](N)[C@H]3O)[C@H](N)C[C@@H]2N)[C@H](N)C[C@@H]1O | 13 mm | 18 mm | 20 mm | 17 mm | 1.56 µM (≈ 0.729 µg/mL) | – | – | 6.25 µM (≈ 2.92 µg/mL)
– | – | COc1c(N2CCNC(C)C2)c(F)cc2c(=O)c(C(=O)O)cn(C3CC3)c12 (stereo unspecified) | 21 mm | 29 mm | 31 mm | 23 mm | – | – | – | –
– | – | COc1c(N2C[C@@H]3CCCN[C@@H]3C2)c(F)cc2c(=O)c(C(=O)O)cn(C3CC3)c12 | 10 mm | 24 mm | 31 mm | 14 mm | – | – | – | –

Compound | MIC (Pseudomonas aeruginosa [8]) | MIC (Pseudomonas aeruginosa [9]) | zone of inhibition at 10 µM (Pseudomonas aeruginosa [1]) | zone of inhibition at 10 µM (Pseudomonas aeruginosa [2]) | zone of inhibition at 10 µM (Pseudomonas aeruginosa [3]) | zone of inhibition at 10 µM (Pseudomonas aeruginosa [4]) | MBC (Pseudomonas aeruginosa [5]) | Activity (Pseudomonas aeruginosa [6]) | Activity (Pseudomonas aeruginosa [7]) | MBC (Pseudomonas aeruginosa [10])
O=C([O-])c1cn(C2CC2)c2cc(N3CCNCC3)c(F)cc2c1=O.[K+] | 1.56 µM | 1.56 µM | 24 mm | 30 mm | 38 mm | 26 mm | 6.25 µM | 20% | 32% | 6.25 µM
